Patent US20100069460A1, “1-PHENYL 1-THIO-D-GLUCITOL DERIVATIVE” (TAISHO PHARMACEUTICAL CO., LTD., priority 2006, published 2010)
One block for each compound: values may come before it.

What was measured:
[1] = tested on: db/db mice; test: Confirmation test for hypoglycemic effect in db/db mice; type: in vivo; details: oral gavage, 1 mg/10 mL suspension at 10 mL/kg, decrease in blood glucose AUC (0 to 8 hours) relative to control group
Protocol: The laboratory animals used were db/db mice (CLEA Japan, Inc., male, 7 weeks of age). A test substance was suspended in a 0.5% aqueous carboxymethylcellulose (CMC) solution and adjusted to a concentration of 1 mg/10 mL. On the day of the test, the db/db mice were divided into groups of 6 animals each, such that differences in the mean values and variance of their blood glucose levels were minimized, according to the procedures for blood collection and blood glucose measurement described later. The mice were measured for their body weight. Then, the test substance suspension was administered by oral gavage using a probe for oral administration at a volume of 10 mL/kg. The control group received a 0.5% aqueous CMC solution alone. Blood was collected at 8 points in total: before administration of the test substance (0 hour) and 0.5, 1, 2, 4, 6, 8 and 24 hours after oral administration. The test was performed under ad libitum feeding and drinking conditions.
Blood was collected from the orbital venous sinus of each animal under ether anesthesia using a heparin-coated blood collection tube and measured for its blood glucose level with a Glucose CII-Test Wako (Wako Pure Chemical Industries, Ltd., Japan). To determine the intensity (%) of hypoglycemic effect, casual blood glucose levels measured between 0 and 8 hours in each test group were analyzed by the trapezoidal method to calculate the area under the blood glucose-time curve (AUC). The results are expressed as a decrease in AUC relative to that of the control group.

[2] = target: T1, human SGLT2 (Homo sapiens, UniProt P31639); test: Inhibition test for sodium-dependent sugar uptake in CHO-k1 cells stably expressing human SGLT2; type: cell-based; details: 1 mM [14C]methyl α-D-glucopyranoside uptake, 37° C., 1 hour
T1 construct: expressed in transfected cells; vector pcDNA3.1+hygro (Invitrogen)
T1 sequence (P31639 1-672): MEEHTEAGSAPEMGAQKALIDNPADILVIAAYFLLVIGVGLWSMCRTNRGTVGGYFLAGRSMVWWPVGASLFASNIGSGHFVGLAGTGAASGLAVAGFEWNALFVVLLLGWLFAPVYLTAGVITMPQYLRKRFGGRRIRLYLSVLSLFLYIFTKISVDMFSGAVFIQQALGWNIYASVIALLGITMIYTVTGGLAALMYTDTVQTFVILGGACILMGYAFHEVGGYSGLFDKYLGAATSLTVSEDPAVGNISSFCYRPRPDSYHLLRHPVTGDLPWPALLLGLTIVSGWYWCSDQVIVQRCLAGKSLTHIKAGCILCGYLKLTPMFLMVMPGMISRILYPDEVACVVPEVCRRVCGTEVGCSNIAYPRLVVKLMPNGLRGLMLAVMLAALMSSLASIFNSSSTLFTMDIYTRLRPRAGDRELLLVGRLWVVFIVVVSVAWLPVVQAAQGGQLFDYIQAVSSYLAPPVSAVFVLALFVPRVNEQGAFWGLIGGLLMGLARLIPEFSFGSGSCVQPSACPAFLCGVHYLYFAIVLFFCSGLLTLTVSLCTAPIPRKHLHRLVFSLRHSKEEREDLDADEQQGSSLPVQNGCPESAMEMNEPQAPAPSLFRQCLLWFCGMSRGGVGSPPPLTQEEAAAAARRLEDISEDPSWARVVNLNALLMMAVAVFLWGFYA
Protocol: (§1) A human SGLT1 sequence (NM_000343) was reverse-transcribed and amplified from human small intestine mRNA, and then introduced into pCMV-tag5A (Stratagene). Likewise, a human SGLT2 sequence (NM_003041) was prepared from human kidney mRNA in the same manner and introduced into pcDNA3.1+hygro (Invitrogen). The individual cloned sequences were confirmed to be identical with the sequences reported.
(§2) The human SGLT1 and human SGLT2 expression vectors were each transfected into CHO-k1 cells using lipofectamine 2000 (Invitrogen). The cells were cultured in the presence of 500 μg/mL geneticin (SGLT1) or hygromycin B (SGLT2) to select resistant strains and specific activity of sugar uptake in the system shown below was used as an indicator to obtain SGLT-expressing cells.
(§3) The cells stably expressing human SGLT1 or human SGLT2 were used for an inhibition test of sodium-dependent sugar uptake activity.
(§4) The cells were incubated for 20 minutes in 1 mL pretreatment buffer (140 mM choline chloride, 2 mM KCl, 1 mM CaCl2, 1 mM MgCl2, 10 mM HEPES/5 mM Tris, pH 7.4). The pretreatment buffer was removed and replaced with 200 μL uptake buffer containing a test compound (methyl α-D-glucopyranoside (containing [^14C]methyl α-D-glucopyranoside) at 0.1 mM for SGLT1 inhibition and 1 mM for SGLT2 inhibition, 140 mM NaCl, 2 mM KCl, 1 mM CaCl2, 1 mM MgCl2, 10 mM HEPES/5 mM Tris, pH 7.4). Uptake reaction was performed at 37° C. for 30 minutes (SGLT1) or 1 hour (SGLT2). After the reaction, the cells were washed twice with 1 mL washing buffer (10 mM methyl α-D-glucopyranoside, 140 mM choline chloride, 2 mM KCl, 1 mM CaCl2, 1 mM MgCl2, 10 mM HEPES/5 mM Tris, pH 7.4), and then dissolved in a 0.2 M NaOH solution (400 μL). Aquazol 2 (Perkin Elmer) was added and mixed well with each sample, followed by measurement of radioactivity using a liquid scintillation counter (Beckman Coulter) to calculate the amount of sugar uptake. For the control group, uptake buffer containing no test compound was prepared. Moreover, another uptake buffer containing choline chloride instead of NaCl was also prepared for basal uptake.
(§5) Test compounds prepared at 6 appropriate concentrations were used to measure the amount of sugar uptake, and their concentrations required for 50% inhibition of the amount of sugar uptake were calculated as IC50 values, assuming that the amount of sugar uptake in the control group was set to 100%.

[3] = target: T2, human SGLT1 (Homo sapiens, UniProt P13866); test: Inhibition test for sodium-dependent sugar uptake in CHO-k1 cells stably expressing human SGLT1; type: cell-based; details: 0.1 mM [14C]methyl α-D-glucopyranoside uptake, 37° C., 30 minutes
T2 construct: expressed in transfected cells; vector pCMV-tag5A (Stratagene)
T2 sequence (P13866 1-664): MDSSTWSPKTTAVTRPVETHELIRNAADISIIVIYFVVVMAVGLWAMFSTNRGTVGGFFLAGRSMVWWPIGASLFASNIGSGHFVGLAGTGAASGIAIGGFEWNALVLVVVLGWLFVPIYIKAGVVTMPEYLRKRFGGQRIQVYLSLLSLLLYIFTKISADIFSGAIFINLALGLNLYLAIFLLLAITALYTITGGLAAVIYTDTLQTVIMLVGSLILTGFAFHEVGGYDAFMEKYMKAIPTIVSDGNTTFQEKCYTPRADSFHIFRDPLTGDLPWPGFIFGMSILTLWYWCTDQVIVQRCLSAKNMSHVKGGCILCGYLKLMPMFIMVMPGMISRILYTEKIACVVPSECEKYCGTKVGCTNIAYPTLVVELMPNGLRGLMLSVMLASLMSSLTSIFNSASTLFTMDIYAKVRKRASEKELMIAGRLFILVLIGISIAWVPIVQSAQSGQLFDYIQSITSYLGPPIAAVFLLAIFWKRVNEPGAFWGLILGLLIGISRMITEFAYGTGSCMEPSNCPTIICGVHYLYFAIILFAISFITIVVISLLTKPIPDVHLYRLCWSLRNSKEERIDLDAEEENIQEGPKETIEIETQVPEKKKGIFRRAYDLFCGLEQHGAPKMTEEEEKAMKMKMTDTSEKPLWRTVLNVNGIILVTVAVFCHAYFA
Protocol: as §1, §2, §3, §4, §5

Compound: CCOc1ccc(Cc2cc([C@@H]3S[C@H](CO)[C@@H](O)[C@H](O)[C@H]3O)c(O)cc2C)cc1 [Compound 98, reference compound]
Intensity of hypoglycemic effect [1]: 35.0%

Compound: CSc1ccc(Cc2cc([C@@H]3S[C@H](CO)[C@@H](O)[C@H](O)[C@H]3O)c(O)cc2C)cc1 [Compound IV, (1S)-1,5-anhydro-1-[2-hydroxy-4-methyl-5-[4-(methylsulfanyl)benzyl]phenyl]-1-thio-D-glucitol]
IC50 [2]: 10 nM
IC50 [3]: 27 nM

Compound: COc1ccc(Cc2cc([C@@H]3S[C@H](CO)[C@@H](O)[C@H](O)[C@H]3O)c(O)cc2C)cc1 [II, (1S)-1,5-anhydro-1-[5-(4-methoxybenzyl)-4-methyl-2-hydroxyphenyl]-1-thio-D-glucitol]
IC50 [2]: 20 nM
Intensity of hypoglycemic effect [1]: 49.7%
IC50 [3]: 32 nM

Compound: CCc1ccc(Cc2cc([C@@H]3S[C@H](CO)[C@@H](O)[C@H](O)[C@H]3O)c(O)cc2C)cc1 [III, (1 S)-1,5-anhydro-1-[5-(4-ethylbenzyl)-2-hydroxy-4-methylphenyl]-1-thio-D-glucitol]
IC50 [2]: 12 nM
IC50 [3]: 32 nM

Compound: CCc1ccc(Cc2cc([C@@H]3S[C@H](CO)[C@@H](O)[C@H](O)[C@H]3O)c(O)cc2Cl)cc1 [VI, (1S)-1,5-anhydro-1-[4-chloro-2-hydroxy-5-(4-ethylbenzyl)phenyl]-1-thio-D-glucitol]
IC50 [2]: 8 nM
IC50 [3]: 29 nM

The next lines start with results.

IC50 [2]: 20 nM
IC50 [3]: 17 nM
Compound: Cc1ccc(Cc2cc([C@@H]3S[C@H](CO)[C@@H](O)[C@H](O)[C@H]3O)c(O)cc2C)cc1 [Compound I, (1S)-1,5-anhydro-1-[4-methyl-5-(4-methylbenzyl)-2-hydroxyphenyl]-1-thio-D-glucitol]
Intensity of hypoglycemic effect [1]: 48.5%

IC50 [2]: 11 nM
IC50 [3]: 19 nM
Compound: Cc1ccc(Cc2cc([C@@H]3S[C@H](CO)[C@@H](O)[C@H](O)[C@H]3O)c(O)cc2Cl)cc1 [V, (1S)-1,5-anhydro-1-[4-chloro-2-hydroxy-5-(4-methylbenzyl)phenyl]-1-thio-D-glucitol]

IC50 [2]: 13 nM
IC50 [3]: 33 nM
Compound: COc1ccc(Cc2cc([C@@H]3S[C@H](CO)[C@@H](O)[C@H](O)[C@H]3O)c(O)cc2Cl)cc1 [VII, (1S)-1,5-anhydro-1-[4-chloro-2-hydroxy-5-(4-methoxybenzyl)phenyl]-1-thio-D-glucitol]
